Publication PMC5762315, “Inhibition of polo-like kinase 4 (PLK4): a new therapeutic option for rhabdoid tumors and pediatric medulloblastoma” (Oncotarget, 2017)
“And” between values parts separate entries of the source, which are not always exact repeats. Equal values may be shown once.

Legend:
Assay in all cases: LanthaScreen Eu Kinase Binding Assay, panel of 486 biochemical kinase assays
various kinases [1] = target: various kinases (Homo sapiens, UniProt P22607, K650M); settings: FGFR3 K650M
various kinases [2] = target: various kinases (Homo sapiens, UniProt Q96GX5); settings: MASTL
various kinases [3] = target: various kinases (Homo sapiens, UniProt Q9H2G2); settings: kinase SLK; LanthaScreen Binding
various kinases (Homo sapiens, UniProt Q9H2G2), sequence (Q9H2G2 whole entry): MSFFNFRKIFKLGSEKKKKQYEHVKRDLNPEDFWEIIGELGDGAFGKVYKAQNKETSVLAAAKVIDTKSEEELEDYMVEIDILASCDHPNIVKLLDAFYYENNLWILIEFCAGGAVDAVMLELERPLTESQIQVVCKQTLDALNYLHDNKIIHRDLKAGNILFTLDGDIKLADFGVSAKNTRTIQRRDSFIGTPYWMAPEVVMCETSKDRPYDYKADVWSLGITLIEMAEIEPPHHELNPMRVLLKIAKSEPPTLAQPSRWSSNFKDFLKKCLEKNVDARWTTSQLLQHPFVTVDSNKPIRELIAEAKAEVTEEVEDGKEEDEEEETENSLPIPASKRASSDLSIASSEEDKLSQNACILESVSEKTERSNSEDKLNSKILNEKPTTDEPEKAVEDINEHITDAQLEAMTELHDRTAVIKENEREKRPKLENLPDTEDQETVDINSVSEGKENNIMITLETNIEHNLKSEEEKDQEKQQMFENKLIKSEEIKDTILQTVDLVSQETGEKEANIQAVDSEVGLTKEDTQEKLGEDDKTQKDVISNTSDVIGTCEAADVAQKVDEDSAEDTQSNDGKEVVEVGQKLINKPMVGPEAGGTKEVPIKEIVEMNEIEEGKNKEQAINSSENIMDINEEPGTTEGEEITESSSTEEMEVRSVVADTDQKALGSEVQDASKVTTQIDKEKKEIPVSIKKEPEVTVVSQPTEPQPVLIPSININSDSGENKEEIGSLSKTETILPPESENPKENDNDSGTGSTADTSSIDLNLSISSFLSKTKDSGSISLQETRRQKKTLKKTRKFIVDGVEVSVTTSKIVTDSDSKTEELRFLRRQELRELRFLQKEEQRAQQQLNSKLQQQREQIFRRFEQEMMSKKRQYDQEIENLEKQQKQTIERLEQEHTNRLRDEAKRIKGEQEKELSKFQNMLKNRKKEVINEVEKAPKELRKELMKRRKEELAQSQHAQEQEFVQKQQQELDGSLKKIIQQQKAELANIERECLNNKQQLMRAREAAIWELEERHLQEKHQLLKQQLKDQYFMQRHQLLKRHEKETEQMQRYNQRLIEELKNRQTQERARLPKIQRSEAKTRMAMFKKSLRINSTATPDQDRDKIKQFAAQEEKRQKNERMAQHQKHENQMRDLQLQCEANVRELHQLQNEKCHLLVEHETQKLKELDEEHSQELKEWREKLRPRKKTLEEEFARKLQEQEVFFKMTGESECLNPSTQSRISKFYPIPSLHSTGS

various kinases [4] = target: various kinases (Homo sapiens, UniProt P24941)
various kinases [5] = target: T1, various kinases (Homo sapiens, UniProt Q9UEE5); settings: kinase STK17A (DRAK1); LanthaScreen Binding
T1 sequence (Q9UEE5 1-414): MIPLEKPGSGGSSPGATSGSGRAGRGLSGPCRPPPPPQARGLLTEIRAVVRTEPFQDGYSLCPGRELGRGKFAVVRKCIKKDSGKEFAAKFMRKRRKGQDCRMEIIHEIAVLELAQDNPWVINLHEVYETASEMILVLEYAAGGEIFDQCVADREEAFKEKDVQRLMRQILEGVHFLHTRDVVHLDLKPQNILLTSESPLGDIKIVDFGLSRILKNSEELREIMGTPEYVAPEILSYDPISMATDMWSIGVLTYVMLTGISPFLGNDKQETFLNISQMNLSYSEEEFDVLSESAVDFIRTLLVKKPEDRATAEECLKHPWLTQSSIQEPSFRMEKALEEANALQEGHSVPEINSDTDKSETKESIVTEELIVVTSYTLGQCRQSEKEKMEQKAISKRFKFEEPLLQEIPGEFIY

various kinases [6] = target: various kinases (Homo sapiens, UniProt Q86Y07); settings: kinase VRK2; LanthaScreen Binding
various kinases [7] = target: various kinases (Homo sapiens, UniProt Q9NY57); settings: kinase STK32B (YANK2); LanthaScreen Binding
various kinases (Homo sapiens, UniProt Q9NY57), sequence (Q9NY57 whole entry): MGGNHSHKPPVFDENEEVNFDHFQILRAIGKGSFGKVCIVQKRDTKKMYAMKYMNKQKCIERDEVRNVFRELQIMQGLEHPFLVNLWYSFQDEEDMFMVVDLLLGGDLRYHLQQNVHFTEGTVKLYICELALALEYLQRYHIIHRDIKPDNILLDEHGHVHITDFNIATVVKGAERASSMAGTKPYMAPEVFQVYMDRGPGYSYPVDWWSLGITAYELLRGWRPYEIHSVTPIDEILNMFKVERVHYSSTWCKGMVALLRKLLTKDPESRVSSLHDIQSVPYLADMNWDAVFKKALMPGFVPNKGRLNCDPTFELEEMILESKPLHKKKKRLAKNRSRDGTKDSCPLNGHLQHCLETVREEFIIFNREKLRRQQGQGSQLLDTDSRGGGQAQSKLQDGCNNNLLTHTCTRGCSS

various kinases [8] = target: various kinases (Homo sapiens, UniProt Q9Y616); settings: IRAK3
various kinases [9] = target: various kinases (Homo sapiens, UniProt P11362, V561M); settings: FGFR1 V561M
various kinases [10] = target: T2, various kinases (Homo sapiens, UniProt P33981); settings: kinase TTK; LanthaScreen Binding
T2 sequence (P33981 1-857): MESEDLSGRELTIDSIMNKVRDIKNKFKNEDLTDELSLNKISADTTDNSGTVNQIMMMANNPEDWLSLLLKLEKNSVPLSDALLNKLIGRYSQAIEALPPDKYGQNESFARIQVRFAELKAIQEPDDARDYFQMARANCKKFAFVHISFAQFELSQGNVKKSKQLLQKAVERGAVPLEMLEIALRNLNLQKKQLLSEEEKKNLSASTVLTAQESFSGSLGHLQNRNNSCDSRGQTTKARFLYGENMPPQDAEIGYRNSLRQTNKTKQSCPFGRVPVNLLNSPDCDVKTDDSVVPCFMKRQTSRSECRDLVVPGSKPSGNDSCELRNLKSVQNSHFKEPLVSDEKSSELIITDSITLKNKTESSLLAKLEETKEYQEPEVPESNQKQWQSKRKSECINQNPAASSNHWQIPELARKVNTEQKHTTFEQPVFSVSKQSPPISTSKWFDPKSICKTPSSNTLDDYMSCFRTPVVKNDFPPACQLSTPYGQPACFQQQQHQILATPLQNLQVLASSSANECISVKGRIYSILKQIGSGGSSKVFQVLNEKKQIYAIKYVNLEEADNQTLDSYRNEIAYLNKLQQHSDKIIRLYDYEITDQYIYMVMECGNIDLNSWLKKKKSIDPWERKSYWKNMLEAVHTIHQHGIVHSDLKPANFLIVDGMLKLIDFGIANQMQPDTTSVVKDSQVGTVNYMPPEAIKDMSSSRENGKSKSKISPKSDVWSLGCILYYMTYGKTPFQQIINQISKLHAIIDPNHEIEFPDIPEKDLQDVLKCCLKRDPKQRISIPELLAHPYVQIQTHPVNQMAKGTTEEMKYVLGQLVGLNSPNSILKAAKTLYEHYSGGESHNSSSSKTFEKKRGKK

various kinases [11] = target: various kinases (Homo sapiens, UniProt P00519, Q252H); settings: ABL1 Q252H
various kinases [12] = target: various kinases (Homo sapiens, UniProt Q9H093); settings: NUAK2
various kinases [13] = target: various kinases (Homo sapiens, UniProt Q9NRM7); settings: LATS2
various kinases [14] = target: various kinases (Homo sapiens, UniProt P29320); settings: EPHA3
various kinases [15] = target: various kinases (Homo sapiens, UniProt Q9Y3S1); settings: kinase WNK2; LanthaScreen Binding
various kinases (Homo sapiens, UniProt Q9Y3S1), sequence (Q9Y3S1 whole entry): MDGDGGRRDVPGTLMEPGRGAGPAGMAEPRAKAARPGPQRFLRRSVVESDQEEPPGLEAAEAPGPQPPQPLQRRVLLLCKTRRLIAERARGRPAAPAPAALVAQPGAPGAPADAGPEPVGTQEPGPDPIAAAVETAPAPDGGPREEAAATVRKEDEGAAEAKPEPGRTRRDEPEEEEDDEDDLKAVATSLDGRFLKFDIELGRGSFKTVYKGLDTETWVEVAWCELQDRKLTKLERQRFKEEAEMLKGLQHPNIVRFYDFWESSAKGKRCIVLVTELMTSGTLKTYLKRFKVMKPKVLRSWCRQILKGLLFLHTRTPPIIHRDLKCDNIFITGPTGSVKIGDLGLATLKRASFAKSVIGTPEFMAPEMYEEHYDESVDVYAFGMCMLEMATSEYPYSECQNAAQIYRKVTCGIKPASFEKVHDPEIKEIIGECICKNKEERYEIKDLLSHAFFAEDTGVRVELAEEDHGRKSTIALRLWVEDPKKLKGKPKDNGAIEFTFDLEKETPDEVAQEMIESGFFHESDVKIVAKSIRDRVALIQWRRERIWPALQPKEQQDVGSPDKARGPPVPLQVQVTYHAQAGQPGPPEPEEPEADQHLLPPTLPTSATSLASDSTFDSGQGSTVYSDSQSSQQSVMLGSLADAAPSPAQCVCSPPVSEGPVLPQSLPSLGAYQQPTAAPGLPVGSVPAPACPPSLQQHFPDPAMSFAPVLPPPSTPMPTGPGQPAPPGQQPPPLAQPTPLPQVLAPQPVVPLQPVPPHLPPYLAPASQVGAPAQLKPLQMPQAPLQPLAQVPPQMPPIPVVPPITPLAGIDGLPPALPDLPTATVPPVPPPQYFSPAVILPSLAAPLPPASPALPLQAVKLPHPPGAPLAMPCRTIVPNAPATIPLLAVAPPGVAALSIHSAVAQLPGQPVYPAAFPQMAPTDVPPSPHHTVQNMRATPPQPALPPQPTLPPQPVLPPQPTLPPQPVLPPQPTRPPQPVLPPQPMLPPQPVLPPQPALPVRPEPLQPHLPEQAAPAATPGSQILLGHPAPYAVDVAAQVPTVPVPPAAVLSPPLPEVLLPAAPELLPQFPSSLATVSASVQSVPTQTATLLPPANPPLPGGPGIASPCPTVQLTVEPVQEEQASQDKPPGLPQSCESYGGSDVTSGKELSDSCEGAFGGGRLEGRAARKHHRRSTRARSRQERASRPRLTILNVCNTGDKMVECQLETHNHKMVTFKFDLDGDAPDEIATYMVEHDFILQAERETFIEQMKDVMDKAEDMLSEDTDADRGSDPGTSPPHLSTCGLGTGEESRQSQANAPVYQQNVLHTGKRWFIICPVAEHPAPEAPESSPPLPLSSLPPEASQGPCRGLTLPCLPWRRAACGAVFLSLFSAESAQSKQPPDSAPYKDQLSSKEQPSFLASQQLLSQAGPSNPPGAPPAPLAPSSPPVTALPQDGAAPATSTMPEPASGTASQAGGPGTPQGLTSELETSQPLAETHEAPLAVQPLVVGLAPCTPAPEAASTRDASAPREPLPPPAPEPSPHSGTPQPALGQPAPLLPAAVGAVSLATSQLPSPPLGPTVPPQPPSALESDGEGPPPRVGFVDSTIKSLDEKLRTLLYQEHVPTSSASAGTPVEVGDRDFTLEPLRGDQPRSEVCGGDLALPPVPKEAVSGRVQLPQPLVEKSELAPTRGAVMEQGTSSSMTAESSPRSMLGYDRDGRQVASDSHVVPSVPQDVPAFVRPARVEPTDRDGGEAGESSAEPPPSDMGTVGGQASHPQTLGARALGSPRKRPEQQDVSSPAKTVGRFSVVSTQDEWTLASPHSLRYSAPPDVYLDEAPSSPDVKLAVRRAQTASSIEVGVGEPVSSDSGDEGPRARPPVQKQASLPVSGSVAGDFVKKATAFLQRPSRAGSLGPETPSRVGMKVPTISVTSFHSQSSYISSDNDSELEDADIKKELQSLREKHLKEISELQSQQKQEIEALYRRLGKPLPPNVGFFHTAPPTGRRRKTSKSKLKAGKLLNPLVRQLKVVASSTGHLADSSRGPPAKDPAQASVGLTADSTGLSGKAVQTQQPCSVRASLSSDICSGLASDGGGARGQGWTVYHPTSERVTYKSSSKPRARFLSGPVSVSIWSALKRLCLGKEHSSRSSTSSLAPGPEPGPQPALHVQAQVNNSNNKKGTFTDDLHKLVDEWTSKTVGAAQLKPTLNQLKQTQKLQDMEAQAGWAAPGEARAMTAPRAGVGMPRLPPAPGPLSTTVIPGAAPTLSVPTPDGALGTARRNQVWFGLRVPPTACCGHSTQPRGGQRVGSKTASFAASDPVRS

various kinases [16] = target: various kinases (Homo sapiens, UniProt P57059); settings: kinase SIK1; LanthaScreen Binding
various kinases [17] = target: various kinases (Homo sapiens, UniProt Q96RR4); settings: CAMKK2 (CaMKK beta)
various kinases [18] = target: various kinases (Homo sapiens, UniProt P15056, V600E); settings: BRAF V599E
various kinases [19] = target: various kinases (Homo sapiens, UniProt P07949, G691S); settings: kinase RET G691S; LanthaScreen Binding
various kinases (Homo sapiens, UniProt P07949, G691S), sequence (P07949 29-1114 G691S): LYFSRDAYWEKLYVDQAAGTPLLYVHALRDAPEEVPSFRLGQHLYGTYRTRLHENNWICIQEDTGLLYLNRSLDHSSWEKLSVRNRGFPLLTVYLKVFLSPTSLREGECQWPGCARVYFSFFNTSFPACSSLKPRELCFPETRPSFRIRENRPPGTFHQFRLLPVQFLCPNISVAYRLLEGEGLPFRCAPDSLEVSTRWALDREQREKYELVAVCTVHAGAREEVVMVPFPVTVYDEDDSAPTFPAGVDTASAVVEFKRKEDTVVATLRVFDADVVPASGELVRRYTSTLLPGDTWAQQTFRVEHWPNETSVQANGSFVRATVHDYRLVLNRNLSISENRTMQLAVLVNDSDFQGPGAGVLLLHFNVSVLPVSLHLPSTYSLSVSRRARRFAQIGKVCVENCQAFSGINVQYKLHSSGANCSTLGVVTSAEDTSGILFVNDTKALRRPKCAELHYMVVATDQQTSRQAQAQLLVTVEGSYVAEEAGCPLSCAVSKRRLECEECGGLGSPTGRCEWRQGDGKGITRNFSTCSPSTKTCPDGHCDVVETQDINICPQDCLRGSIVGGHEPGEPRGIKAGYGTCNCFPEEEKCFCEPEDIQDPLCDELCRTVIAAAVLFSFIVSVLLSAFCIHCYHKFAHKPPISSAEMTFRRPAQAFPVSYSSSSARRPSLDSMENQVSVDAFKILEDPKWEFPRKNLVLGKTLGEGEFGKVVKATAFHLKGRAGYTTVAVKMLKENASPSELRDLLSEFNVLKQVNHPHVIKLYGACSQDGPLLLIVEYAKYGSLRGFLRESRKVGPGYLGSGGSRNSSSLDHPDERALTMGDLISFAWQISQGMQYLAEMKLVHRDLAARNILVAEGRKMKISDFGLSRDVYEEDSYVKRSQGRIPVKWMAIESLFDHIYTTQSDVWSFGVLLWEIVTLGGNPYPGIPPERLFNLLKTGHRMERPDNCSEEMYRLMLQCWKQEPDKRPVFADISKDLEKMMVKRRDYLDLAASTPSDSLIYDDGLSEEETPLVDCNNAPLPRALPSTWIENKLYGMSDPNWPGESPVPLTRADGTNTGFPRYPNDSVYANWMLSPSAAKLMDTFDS

various kinases [20] = target: various kinases (Homo sapiens, UniProt P53671); settings: LIMK2

COc1ccc2c(c1)[C@]1(C[C@H]1c1ccc3c(/C=C/c4ccc(CN5C[C@@H](C)O[C@@H](C)C5)cc4)n[nH]c3c1)C(=O)N2 [CFI-400945]
% Inhibition (various kinases [1]): 44% and 48% | % Inhibition (various kinases [2]): 16% and 15% | % Inhibition Average (various kinases [3]): 5% | % Inhibition Duplicate #1 (various kinases [3]): 4% | % Inhibition Duplicate #2 (various kinases [3]): 6% | % Inhibition (various kinases [4]; CDK2/cyclin A1): 12% and 19% | % Inhibition (various kinases [4]; CDK2/cyclin E1): 9% | % Inhibition (various kinases [4]; CDK2/cyclin O): 13% and 19% | % Inhibition Average (various kinases [5]): 19% | % Inhibition Duplicate #1 (various kinases [5]): 24% | % Inhibition Duplicate #2 (various kinases [5]): 13% | % Inhibition Average (various kinases [6]): 13% | % Inhibition Duplicate #1 (various kinases [6]): 17% | % Inhibition Duplicate #2 (various kinases [6]): 8% | % Inhibition Average (various kinases [7]): 4% | % Inhibition Duplicate #1 (various kinases [7]): -1% | % Inhibition Duplicate #2 (various kinases [7]): 9% | % Inhibition (various kinases [8]): 29% | % Inhibition (various kinases [9]): 55% and 57% | % Inhibition Average (various kinases [10]): 6% | % Inhibition Duplicate #1 (various kinases [10]): 4% | % Inhibition Duplicate #2 (various kinases [10]): 7% | % Inhibition (various kinases [11]): 72% | % Inhibition (various kinases [12]): 44% and 36% | % Inhibition (various kinases [13]): 16% and 14% | % Inhibition (various kinases [14]): -2% and -1% | % Inhibition Average (various kinases [15]): -3% | % Inhibition Duplicate #1 (various kinases [15]): -6% | % Inhibition Duplicate #2 (various kinases [15]): 0% | % Inhibition Average (various kinases [16]): 6% | % Inhibition Duplicate #1 (various kinases [16]): 5% | % Inhibition Duplicate #2 (various kinases [16]): 6% | % Inhibition (various kinases [17]): 33% and 23% | % Inhibition (various kinases [18]): 9% and 7% | % Inhibition Average (various kinases [19]): -1% | % Inhibition Duplicate #1 (various kinases [19]): -11% | % Inhibition Duplicate #2 (various kinases [19]): 9% | % Inhibition (various kinases [20]): 4% and 0%
